Assay results published in patent US20240350475A1, “TR[…] CARD[…] BY SARS-COV-2 SPIKE PROTEIN UNDER OBESITY” (priority 2023, published 2024).
Entries after “also recorded” stand apart in the source; their conditions may differ.

Key:
HEK_Spike cells = assay: Palmitic acid (PA)-induced lipotoxicity assay in Spike cells, with or without inhibitors (PI/Hoechst cell viability); type: cell-based, Human; conditions: for PA-induced Spike protein-exaggerated lipotoxicity (necrosis, cell viability): Spike cells, then 750 M PA 24 h, DMEM 5% FBS
Description: (§1) The HEK293, HEK_pcDNA, and HEK_Spike cells were cultured in a 96-well plate and reached to 80% confluence on the next day before treatment. The cells were kept in DMEM medium with 5% FBS during the entire treatment procedure. The cells were treated with PA (free BSA) in various concentrations from 250 to 1000 M for 24, 48, or 72 h.
(§2) For treatment control groups, the cells were treated by the same concentrations of BSA in parallel. For the inhibitory assay, the cells were pre-incubated by autophagic inhibitors (125 M trigonelline (TRG), or 10 M Wortmannin), or a ferropotosis inhibitor (ferrostatin, 2 M), or an […] (necrostatin-1, 10 M) in DMEM medium with 5% FBS for 2 h, followed by 750 M PA treatment for 24 h. The cells were then co-stained by Propidium Iodide (PI) and Hoechst 33342 NucBlue Live Cell Stain dye (ThermoFisher) to show the dead and live cells. The dyes were excited at 535 nm and 405 nm, respectively. TRG may be provided over a range of concentration such as 50 to 300 M, 60 to 290, 70 to 280, 80 to 270, 90 to 260, 100 to 250, 110 to 240, 120 to 230, 130 to 220, 140 to 210, 150 to 200, 160 to 190, 170 to 180, as well as sub ranges such as from 100M to 200 M, 125M to 175 M, etc., also include individual concentrations, such as 125M, 150 M, 175M, etc. Wortmannin may be provided over a range of concentrations from 5 to 100, 10 to 90, 15 to 80, 20 to 70, 25 to 60, 30 to 50 M, etc., including subranges and individual concentrations within these ranges.
Images were acquired and cell viability analyses were performed using an ImagXpress Pico Automated system.

[1] = system: HEK293 and HEK_pcDNA cells; assay: Palmitic acid (PA)-induced lipotoxicity assay in control cells; type: cell-based, Human; conditions: PA overload; HEK293 (mock) and pcDNA cells; DMEM 5% FBS
Description: as §1
as §2, with “Wortmannin may be provided over a range of concentrations from 5 to 100, 10 to 90, 15 to 80, 20 to 70, 25 to 60, 30 to 50 M, etc., including subranges and individual concentrations within these ranges.” left out

[2] = system: Human dermal microvascular ECs (hDMVECs); type: cell-based
H9C2 cells [3] = system: H9C2 cells
H9C2 cells [4] = assay: Spike-exosome induced mitochondrial morphology change in H9C2 cells (MitoTracker, confocal); type: cell-based; conditions: spike-exo 150 μg exosomal proteins in 1 ml medium plus TRG 125 μM, 5 days

For `CCOC(=O)c1ccc(NC2CCCCC2)c(N)c1` [ferrostatin], the “PA-induced Spike protein-exaggerated lipotoxicity (necrosis, cell viability)” value (HEK_Spike cells; pre-incubated with ferrostatin 2 M 2 h) was “significantly mitigated” and the “PA-induced Spike protein-exaggerated lipotoxicity (necrosis, cell viability)” value (HEK_Spike cells; pre-incubated with ferrostatin 2 M 2 h, listed as ferrostatin 1) was “can be suppressed”.
For `CCCCCCCCCCCCCCCC(=O)O` [PA, Palmitic acid], the “effect of PA on the Spike cells” value (HEK_Spike cells; 500 M and 250 M PA, after 72 h treatment) was “modest or mild effect”, the “PA-induced cell death (lipotoxicity)” value (HEK_Spike cells; Spike cells versus mock and pcDNA cells, PA 750 or 1000 M, 24 to 72 h) was “significantly augmented” and the “PA-induced cell death (lipotoxicity)” value [1] was “induced cell death”.
`C[n+]1cccc(C(=O)[O-])c1` [TRG, Trigonelline] was tested, and the “PA-induced Spike protein-exaggerated lipotoxicity (necrosis, cell viability)” value (HEK_Spike cells; pre-incubated with 125 M TRG 2 h) was “can attenuate; also recorded: can be suppressed; also recorded: significantly mitigated”, the “PA-induced Spike protein-exaggerated lipotoxicity (necrosis, cell viability)” value (HEK_Spike cells; pre-incubated with 125 M TRG 2 h, listed as trigonelline) was “could be attenuated” and the “cellular ROS levels” value [2] was “attenuated”. The “density of mitochondria decreased by Spike-EVs plus LDL-c” value [2] was “could restore”, the “diameter of mitochondria decreased by Spike-EVs plus LDL-c” value [2] was “could restore” and the “PA-induced Spike protein-exaggerated lipotoxicity (cell viability)” value (H9C2 cells [3]) was “could be reversed”. For the same compound, the “spike-exo induced mitochondrial fusion (mitochondrial morphology)” value (H9C2 cells [4]) was “can reverse”.
